Measured values: PubChem BioAssay AID220 (DTP/NCI, 2004)
Several values for one entry are separate records, joined by “and”; a condition that tells them apart may be missing. Equal entries are not always repeated. Inconclusive results are not listed.

Tested on: CD8F1 mice, subcutaneous mammary adenocarcinoma, T/C%
Assay: NCI In Vivo Anticancer Drug Screen. Data for tumor model Mammary Adenocarcinoma CD8F1 (subcutaneous) in CD8F1
Settings: higher = larger tumour
In short: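 Tumor-bearing mice, transplantable model; readout survival or tumor size; value = treated (T) / vehicle control (C).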

[1] = endpoint: median tumor weight (est.), dose: 100.0 mg/kg/injection, schedule: Q07DX005 (ip), vehicle: suspension in saline
[2] = endpoint: median tumor weight (est.), dose: 6.25 mg/kg/injection, schedule: Q07DX005 (ip), vehicle: saline with Tween-80
[3] = endpoint: median tumor weight (est.), dose: 12.5 mg/kg/injection, schedule: Q07DX005 (ip), vehicle: saline with Tween-80
[4] = endpoint: median tumor weight (est.), dose: 25.0 mg/kg/injection, schedule: Q07DX005 (ip), vehicle: saline with Tween-80
[5] = endpoint: median tumor weight (est.), dose: 50.0 mg/kg/injection, schedule: Q07DX005 (ip), vehicle: saline with Tween-80
[6] = endpoint: median tumor weight (est.), dose: 100.0 mg/kg/injection, schedule: Q07DX005 (ip), vehicle: saline with Tween-80
[7] = endpoint: median tumor weight (est.), dose: 200.0 mg/kg/injection, schedule: Q07DX005 (ip), vehicle: saline with Tween-80

SMILES: [Cl][Hg][Cl]
- T/C (endpoint: median tumor weight change, dose: 1.56 mg/kg/injection, schedule: Q01DX001 (ip), vehicle: saline): 87 % of control
- T/C (endpoint: median tumor weight change, dose: 3.12 mg/kg/injection, schedule: Q01DX001 (ip), vehicle: saline): 71 % of control

SMILES: COc1cc2cc3c4cc(OC)c(OC)cc4cc[n+]3c(C)c2cc1OC (tested in a mixture with another compound)
- T/C [1]: 97 % of control

SMILES: O=NN(CCCl)C(=O)NC1[C@H](O)CCC[C@@H]1O (stereo partly drawn)
- T/C (endpoint: median tumor weight change, dose: 6.25 mg/kg/injection, schedule: Q01DX001 (ip), vehicle: saline): 71 % of control and 73 % of control
- T/C (endpoint: median tumor weight change, dose: 12.5 mg/kg/injection, schedule: Q01DX001 (ip), vehicle: saline): 15 % of control and 17 % of control
- T/C (endpoint: median tumor weight change, dose: 25.0 mg/kg/injection, schedule: Q01DX001 (ip), vehicle: saline): 6 % of control

SMILES: Cc1c(N)nc(C(CC(N)=O)NCC(N)C(N)=O)nc1C(=O)NC(C(=O)NC(C)C(O)C(C)C(=O)NC(C(=O)NCCc1nc(-c2nc(C(=O)NCCCNCCCc3ccccn3)cs2)cs1)C(C)O)C(OC1OC(CO)C(O)C(O)C1OC1OC(CO)C(O)C(OC(N)=O)C1O)c1cnc[nH]1 (stereo not drawn)
- T/C (endpoint: median tumor weight (est.), dose: 0.37 mg/kg/injection, schedule: Q07DX005 (ip), vehicle: water): 45 % of control
- T/C (endpoint: median tumor weight (est.), dose: 0.75 mg/kg/injection, schedule: Q07DX005 (ip), vehicle: water): 76 % of control
- T/C (endpoint: median tumor weight (est.), dose: 1.5 mg/kg/injection, schedule: Q07DX005 (ip), vehicle: water): 104 % of control
- T/C (endpoint: median tumor weight (est.), dose: 3.2 mg/kg/injection, schedule: Q07DX005 (ip), vehicle: water): 101 % of control
- T/C (endpoint: median tumor weight (est.), dose: 3.5 mg/kg/injection, schedule: Q07DX005 (ip), vehicle: water): 166 % of control
- T/C (endpoint: median tumor weight (est.), dose: 6.0 mg/kg/injection, schedule: Q07DX005 (ip), vehicle: water): 100 % of control
- T/C (endpoint: median tumor weight (est.), dose: 6.4 mg/kg/injection, schedule: Q07DX005 (ip), vehicle: water): 52 % of control
- T/C (endpoint: median tumor weight (est.), dose: 7.0 mg/kg/injection, schedule: Q07DX005 (ip), vehicle: water): 104 % of control
- T/C (endpoint: median tumor weight (est.), dose: 12.8 mg/kg/injection, schedule: Q07DX005 (ip), vehicle: water): 12 % of control
- T/C (endpoint: median tumor weight (est.), dose: 14.0 mg/kg/injection, schedule: Q07DX005 (ip), vehicle: water): 53 % of control
- T/C (endpoint: median tumor weight (est.), dose: 28.0 mg/kg/injection, schedule: Q07DX005 (ip), vehicle: water): 3 % of control

SMILES: C=C(C)[C@]12CC(C)C34OC(/C=C\C=C\CCCCCCCCC)(O[C@@H]1[C@@H]3[C@@H]1O[C@]1(CO)[C@@H](O)[C@]1(O)C(=O)C(C)=C[C@@H]41)O2 (stereo partly drawn)
- T/C (endpoint: median tumor weight (est.), dose: 0.37 mg/kg/injection, schedule: Q07DX002 (ip), vehicle: saline + alcohol): 110 % of control
- T/C (endpoint: median tumor weight (est.), dose: 0.37 mg/kg/injection, schedule: Q07DX005 (ip), vehicle: saline + alcohol): 82 % of control
- T/C (endpoint: median tumor weight (est.), dose: 0.75 mg/kg/injection, schedule: Q07DX002 (ip), vehicle: saline + alcohol): 121 % of control
- T/C (endpoint: median tumor weight (est.), dose: 0.75 mg/kg/injection, schedule: Q07DX005 (ip), vehicle: saline + alcohol): 116 % of control
- T/C (endpoint: median tumor weight (est.), dose: 1.5 mg/kg/injection, schedule: Q07DX002 (ip), vehicle: saline + alcohol): 201 % of control
- T/C (endpoint: median tumor weight (est.), dose: 1.5 mg/kg/injection, schedule: Q07DX005 (ip), vehicle: saline + alcohol): 72 % of control

SMILES: O=c1nc(Oc2ccccc2)nc2ncccn12
- T/C [2]: 88 % of control
- T/C [3]: 110 % of control
- T/C [4]: 100 % of control
- T/C [5]: 91 % of control
- T/C [6]: 114 % of control

SMILES: CS(=O)(=O)c1ncc(Br)cn1
- T/C [2]: 242 % of control
- T/C [3]: 405 % of control
- T/C [4]: 222 % of control
- T/C [5]: 286 % of control
- T/C [6]: 348 % of control
- T/C [7]: 311 % of control

SMILES: CNc1nc2c(N)ncnc2n1C1OC(CO)C(O)C1O (stereo not drawn)
- T/C (endpoint: median tumor weight (est.), dose: 25.0 mg/kg/injection, schedule: Q07DX005 (ip), vehicle: suspension in saline): 89 % of control and 91 % of control
- T/C (endpoint: median tumor weight (est.), dose: 50.0 mg/kg/injection, schedule: Q07DX005 (ip), vehicle: suspension in saline): 76 % of control and 96 % of control
- T/C [1]: 29 % of control

SMILES: C=C/C(C)=C/[C@H](C)C(=O)C[C@H](O)CC1CC(=O)NC(=O)C1
- T/C [2]: 41 % of control
- T/C [3]: 62 % of control
- T/C [6]: 157 % of control
- T/C [7]: 50 % of control

SMILES: N=[N+]=CC(=O)CCC(NC(=O)C(CCC(=O)C=[N+]=N)NC(=O)CCC(N)C(=O)O)C(=O)O (stereo not drawn)
- T/C (endpoint: median tumor weight (est.), dose: 3.12 mg/kg/injection, schedule: Q07DX004 (ip), vehicle: clinical formulation): 34 % of control
- T/C (endpoint: median tumor weight (est.), dose: 6.25 mg/kg/injection, schedule: Q07DX004 (ip), vehicle: clinical formulation): 123 % of control
- T/C (endpoint: median tumor weight (est.), dose: 12.5 mg/kg/injection, schedule: Q07DX004 (ip), vehicle: clinical formulation): 50 % of control
- T/C (endpoint: median tumor weight (est.), dose: 25.0 mg/kg/injection, schedule: Q07DX004 (ip), vehicle: clinical formulation): 22 % of control
- T/C (endpoint: median tumor weight (est.), dose: 50.0 mg/kg/injection, schedule: Q07DX004 (ip), vehicle: clinical formulation): 15 % of control
- T/C (endpoint: median tumor weight (est.), dose: 100.0 mg/kg/injection, schedule: Q07DX004 (ip), vehicle: clinical formulation): 12 % of control

SMILES: O=CC=O
- T/C (endpoint: median tumor weight (est.), dose: 25.0 mg/kg/injection, schedule: Q07DX005 (ip), vehicle: Klucel (hydroxypropylcellulose) (HPC)): 92 % of control and 100 % of control

SMILES: O.O.[NH-]C1CCCCC1[NH-].[Pt+2] (stereo not drawn)
- T/C (endpoint: median tumor weight (est.), dose: 0.62 mg/kg/injection, schedule: Q07DX005 (ip), vehicle: dextrose): 50 % of control
- T/C (endpoint: median tumor weight (est.), dose: 20.0 mg/kg/injection, schedule: Q07DX005 (ip), vehicle: dextrose): 69 % of control
- T/C (endpoint: median tumor weight (est.), dose: 40.0 mg/kg/injection, schedule: Q07DX005 (ip), vehicle: dextrose): 39 % of control

SMILES: c1ccc(SSc2ccccn2)nc1
- T/C (endpoint: mean tumor weight, dose: 25.0 mg/kg/injection, schedule: Q07DX006 (ip), vehicle: saline): 123 % of control
- T/C (endpoint: mean tumor weight, dose: 100.0 mg/kg/injection, schedule: Q07DX006 (ip), vehicle: saline): 159 % of control

SMILES: O=C(Nc1ccccc1)c1c(O)[nH]c(=S)[nH]c1=O
- T/C (endpoint: median tumor weight change, dose: 56.0 mg/kg/injection, schedule: Q01DX001 (ip), vehicle: saline with Tween-80): 61 % of control
- T/C (endpoint: median tumor weight change, dose: 112.0 mg/kg/injection, schedule: Q01DX001 (ip), vehicle: saline with Tween-80): 80 % of control

SMILES: COc1ccc(C(N)=O)cc1N=NN(C)C
- T/C (endpoint: median tumor weight (est.), dose: 6.25 mg/kg/injection, schedule: Q07DX005 (ip), vehicle: Klucel (hydroxypropylcellulose) (HPC)): 175 % of control

SMILES: CC1=CC(C)(C)Nc2ccc(CSc3ccccc3)cc21
- T/C (endpoint: median tumor weight change, dose: 50.0 mg/kg/injection, schedule: Q01DX001 (ip), vehicle: saline + Tween-80 + alcohol): 46 % of control
- T/C (endpoint: median tumor weight change, dose: 62.0 mg/kg/injection, schedule: Q01DX001 (ip), vehicle: DMSO): 37 % of control
- T/C (endpoint: median tumor weight change, dose: 100.0 mg/kg/injection, schedule: Q01DX001 (ip), vehicle: saline + Tween-80 + alcohol): 37 % of control
- T/C (endpoint: median tumor weight change, dose: 125.0 mg/kg/injection, schedule: Q01DX001 (ip), vehicle: DMSO): 38 % of control
- T/C (endpoint: median tumor weight change, dose: 200.0 mg/kg/injection, schedule: Q01DX001 (ip), vehicle: saline + Tween-80 + alcohol): 47 % of control
- T/C (endpoint: median tumor weight change, dose: 250.0 mg/kg/injection, schedule: Q01DX001 (ip), vehicle: DMSO): 29 % of control
- T/C (endpoint: median tumor weight change, dose: 400.0 mg/kg/injection, schedule: Q01DX001 (ip), vehicle: saline + Tween-80 + alcohol): 46 % of control
- T/C (endpoint: median tumor weight change, dose: 800.0 mg/kg/injection, schedule: Q01DX001 (ip), vehicle: saline + Tween-80 + alcohol): 32 % of control
- T/C (endpoint: median tumor weight change, dose: 2000.0 mg/kg/injection, schedule: Q01DX001 (ip), vehicle: DMSO): 61 % of control

SMILES: CCCCCCCCCCCCCCCC(=O)Nc1ccn(C2OC(CO)C(O)C2O)c(=O)n1 (stereo not drawn)
- T/C (endpoint: median tumor weight (est.), dose: 12.5 mg/kg/injection, schedule: Q07DX005 (ip), vehicle: saline): 58 % of control
- T/C (endpoint: median tumor weight (est.), dose: 25.0 mg/kg/injection, schedule: Q07DX005 (ip), vehicle: saline): 63 % of control
- T/C (endpoint: median tumor weight (est.), dose: 50.0 mg/kg/injection, schedule: Q07DX005 (ip), vehicle: saline): 65 % of control
- T/C (endpoint: median tumor weight (est.), dose: 100.0 mg/kg/injection, schedule: Q07DX005 (ip), vehicle: saline): 31 % of control
- T/C (endpoint: median tumor weight (est.), dose: 400.0 mg/kg/injection, schedule: Q07DX005 (ip), vehicle: saline): 14 % of control

SMILES: CN(CCN(C)C(=O)CCOS(C)(=O)=O)C(=O)CCOS(C)(=O)=O
- T/C (endpoint: median tumor weight change, dose: 62.0 mg/kg/injection, schedule: Q01DX001 (ip), vehicle: saline): 67 % of control
- T/C (endpoint: median tumor weight change, dose: 62.5 mg/kg/injection, schedule: Q01DX001 (ip), vehicle: saline with Tween-80): 43 % of control
- T/C (endpoint: median tumor weight change, dose: 62.5 mg/kg/injection, schedule: Q01DX001 (ip), vehicle: suspension in saline): 39 % of control
- T/C (endpoint: median tumor weight change, dose: 125.0 mg/kg/injection, schedule: Q01DX001 (ip), vehicle: saline with Tween-80): 15 % of control
- T/C (endpoint: median tumor weight change, dose: 125.0 mg/kg/injection, schedule: Q01DX001 (ip), vehicle: saline): 3 % of control
- T/C (endpoint: median tumor weight change, dose: 125.0 mg/kg/injection, schedule: Q01DX001 (ip), vehicle: suspension in saline): 10 % of control
- T/C (endpoint: median tumor weight change, dose: 250.0 mg/kg/injection, schedule: Q01DX001 (ip), vehicle: saline): 51 % of control
- T/C (endpoint: median tumor weight change, dose: 500.0 mg/kg/injection, schedule: Q01DX001 (ip), vehicle: saline with Tween-80): -17 % of control
